Biological target: T1, HDAC 2 (Homo sapiens, UniProt Q92769)
T1 construct: gene HDAC2
Assay: HDAC enzyme inhibition assay (details not shown)
Format: biochemical

T1 sequence (Q92769 whole entry): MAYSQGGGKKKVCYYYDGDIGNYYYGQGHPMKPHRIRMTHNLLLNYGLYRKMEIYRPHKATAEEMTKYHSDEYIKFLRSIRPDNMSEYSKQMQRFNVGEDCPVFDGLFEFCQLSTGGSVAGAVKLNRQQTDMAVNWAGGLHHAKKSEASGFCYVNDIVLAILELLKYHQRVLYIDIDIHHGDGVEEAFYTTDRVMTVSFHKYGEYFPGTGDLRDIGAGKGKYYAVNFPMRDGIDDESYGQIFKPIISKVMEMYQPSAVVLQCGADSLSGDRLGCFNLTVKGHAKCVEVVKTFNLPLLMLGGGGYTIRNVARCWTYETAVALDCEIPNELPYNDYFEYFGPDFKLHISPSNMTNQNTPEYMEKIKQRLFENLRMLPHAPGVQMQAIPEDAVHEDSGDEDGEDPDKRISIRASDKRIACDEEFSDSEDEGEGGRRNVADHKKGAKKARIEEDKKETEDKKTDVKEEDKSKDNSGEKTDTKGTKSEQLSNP

## COc1cc(NC(=O)NCCCCCCC(=O)NO)c2nc(OC)cc(C)c2c1 [compound 8, MPK544]
  IC50: 58 ± 20 nM
